Patent US6174713A, “Candida cytoplasmic tryptophanyl-tRNA synthetase proteins, nucleic acids and strains comprising same” (Cubist Pharmaceuticals, Inc., priority 1997, dated 2001)

Key:
[1] = target: C. albicans cytoplasmic tryptophanyl-tRNA synthetase (recombinant, thrombin-cleaved GST fusion from pC3 822) (Candida albicans, UniProt Q5A3P4); assay: Aminoacylation (charging) assay, Km determination with purified recombinant TrpRS; assay type: biochemical; conditions: read-out: Km for tryptophan; recombinant enzyme; crude yeast tRNA; 1 to 40 μM [3H]tryptophan; 25° C.
Chain of C. albicans cytoplasmic tryptophanyl-tRNA synthetase (recombinant, thrombin-cleaved GST fusion from pC3 822) (Q5A3P4 whole entry S271A, the tested form may be a part): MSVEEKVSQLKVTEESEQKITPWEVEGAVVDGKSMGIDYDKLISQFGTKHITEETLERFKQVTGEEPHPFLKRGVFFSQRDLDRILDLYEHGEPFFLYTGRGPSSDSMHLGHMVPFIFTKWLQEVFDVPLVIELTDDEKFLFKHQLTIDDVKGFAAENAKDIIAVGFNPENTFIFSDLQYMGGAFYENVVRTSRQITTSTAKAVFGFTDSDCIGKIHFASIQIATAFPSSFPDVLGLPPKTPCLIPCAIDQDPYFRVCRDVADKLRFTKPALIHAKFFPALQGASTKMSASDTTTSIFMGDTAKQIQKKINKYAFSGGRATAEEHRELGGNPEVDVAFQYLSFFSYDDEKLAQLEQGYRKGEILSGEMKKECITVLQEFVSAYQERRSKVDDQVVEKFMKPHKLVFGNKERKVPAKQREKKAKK
Description: (§1) The purified recombinant protein obtained after thrombin cleavage of the GST-fusion protein produced by JM109/pC^3 822 was used for further kinetic studies. Charging assays were based on the procedure of Shepard et al. (Proc. Natl. Acad. Sci. USA 89:9964-68 (1992)). Unless otherwise stated, a typical 50 μl reaction, carried out at 25° C., contained 1 mM ATP, 1 μM of [^3 H]Tryptophan (22.2 Ci/mmol), 90 μM crude tRNA from brewer's yeast (Boehringer Mannheim), 10 mM KF, 30 mM HEPES, 30 mM KCl pH 7.5, 5 mM MgCl2, and 10 mM DTT. Purified enzyme was diluted in 100 mM HEPES, pH 7.5, 20 mM DTT and 0.1 mg/ml BSA.
(§2) Reactions were started by the addition of enzyme to the reaction mixture preincubated at 25° C., with […] protein in the assay. At various time intervals, 10 μl of the reaction mix was quenched in a 96-well filter plate (Millipore, cat# MAFBNOB50) prefilled with 100 μl of cold 5% TCA. The liquid in the filter plate was drained by applying vacuum suction on the manifold. The plate was subsequently washed 2 times with 200 μl 5% TCA, 2 times with 100 μl double distilled H2 O with continuous vacuum suction, and once with 100 μl 95% EtOH. The plate was heat-dried under vacuum, 100 μl Microscint was added to each well, and the aminoacylated tRNA was quantitated by scintillation counting in a Topcount (Packard) scintillation counter. […]

[2] = system: Nc1ncnc2c1ncn2[C@@H]1O[C@H](COP(=O)(O)OP(=O)(O)OP(=O)(O)O)[C@@H](O)[C@H]1O; assay: as above; assay type: biochemical, Candida albicans; conditions: other: recombinant enzyme, ATP concentration range 0.19 to 6 mM, 25° C., pH 7.5
Description: as §1, §2

**Q.** With N[C@@H](Cc1c[nH]c2ccccc12)C(=O)O [tryptophan] as the compound, how does the Km [1] read?
**A.** 3 to 4 µM

**Q.** For “C. albicans cytoplasmic tryptophanyl-tRNA synthetase (recombinant, thrombin-cleaved GST fusion from pC3 822) (Candida albicans SC5314)”, which Km [2] is on record?
**A.** 1100 µM
